The results in this text go back to PMC7567501 (Journal of Enzyme Inhibition and Medicinal Chemistry, 2019).

Read-outs that look alike come from different tables or passages of the source.

The target of one assay is T1, Aβ1-42 (Homo sapiens, UniProt P05067).
T1 construct: Amyloid β-peptide (1–42), Aβ1-42, was purchased from GeneCust; purchased GeneCust
In words: biochemical. The following applies: self-mediated Aβ42 aggregation without copper, inhibitor 80 µM, ThT fluorescence; for inhibition at 80 µM: read-out: Aβ aggregation inhibition, Self-Aβ aggr. The text has this: The Aβ amyloid plaques are one of the main hallmarks of AD and they result from over production and aggregation of β-amyloid peptide, which can accumulate outside the neurons, by self-mediated or Cu^2+-induced process, interfering with the synaptic impairment, neurotransmission and memory. Therefore, anti-AD drugs have been designed aimed to disrupt and disaggregate the Aβ’s fibrils into monomers, obtaining non-toxic forms of β-secretase’s products. To assess the effect of these new hybrids in the inhibition of amyloid peptide aggregation, a selection of the compounds was in vitro assayed, based on the thioflavin T (ThT) method. Indeed ThT is a histochemical dye able to create ionic or hydrophobic interactions with the peptide β–sheets, the predominant secondary structure of the amyloid fibrils in aqueous solutions[36]. This binding interactions can be monitored by fluorimetry since the presence of ThT-fibrils increases the absorbance and the emission of the ThT dye, and induces red shifts on the absorbance (from 385 to 446 nm) and emission peaks (from 445 to 485 nm)[14]. All the measurements were performed after incubation of the self-mediated and Cu^2+-induced Aβ aggregates in the presence/absence of the herein studied compounds. […]. […] This may be rationalised on the basis of their copper chelating capacity, as previously shown by other metal chelating compounds[14]^,[38]. Furthermore, despite some exceptions (e.g. 20 and 24), the increase in linker length and the chloro TAC substitution induce some small negative effects in the inhibition of Aβ self-aggregation.
For the study of the β-amyloid (Aβ) aggregation, the ThT fluorescence assay was performed using a Varian Cary Eclipse fluorimeter at the following wavelengths: excitation (446 nm) and emission (485 nm). Amyloid β-peptide (1–42), Aβ1-42, was purchased from GeneCust as a lyophilised powder stored at −20 °C. TEM assays were performed with a Hitachi H8100 transmission electron microscope with a LaB6 filament (200 kV, 10000–20000 × magnification) at MicroLab/IST.
Among all the methods to measure the aggregation of Aβ1-42, the assay based on Thioflavin T (ThT) is the standard procedure based on the fluorescence of this dye[49]^,[50]. This test is performed with Aβ1-42 peptide previously prepared by dissolving it in 1,1,1,3,3,3–hexafluoro-2-propanol (HFIP), an organic solvent useful to solubilise and monomerize the β–sheet protein aggregates and reserve them in the fridge. Films are re-dissolved in an Eppendorf tube with a fresh solution of a mixture of CH3CN/Na2CO3/NaOH, to have a stable stock solution, and afterwards, added to an optimised fibrillation phosphate buffer. The samples were prepared using MeOH (1 mg/mL) as solvent, followed by incubation in a water bath for 24 h at 37 °C with gentle shaking. After incubation, the samples were added to a 96-well plate (BD Falcon) with 180 µL of 5 µM ThT in 50 mM glycine-NaOH (pH 8.5) buffer. Blank samples were prepared for each concentration in a similar way, devoid of peptide. After 5-min incubation with the dye, the ThT fluorescence was measured at 446 nm (excitation) and 485 nm (emission).

The target in the next assay is T2, AChE (Electrophorus electricus, UniProt O42275).
T2 construct: extracted from Electrophorus electricus (electric eel); purchased Sigma-Aldrich; host or cells: Electrophorus electricus (extracted)
The assay is described as follows: biochemical. Also on record: species or system Electrophorus electricus (electric eel). On the procedure:
The electronic spectra and the AChE inhibition assays were performed in a 1-cm path length quartz cell with a Perkin Elmer Lambda 35 spectrophotometer equipped with a temperature programmer PTP1 + 1 Peltier System (T = 25.0 ± 0.1 °C). The enzyme AChE 500 U, extracted from Electrophorus electricus (electric eel), was purchased from Sigma-Aldrich.
The enzymatic activity of AChE was determined using an adaptation of the Ellman’s method, as described previously[29]^,[32]. Firstly, a stock solution of AChE was prepared by dissolving enzyme 500 U in 10 mL of tris(hydroxymethyl)aminomethane (TRIS) buffer (50 mM, pH 8). Then, 4–(2-hydroxyethyl)-1-piperazineethanesulfonic acid (HEPES) buffer was used for further dilution of the enzyme solution therefore obtaining the final working solution of AChE. The assay solution consisted of 374 µL of HEPES buffer (50 mM and pH 8.0), a variable volume (10–50 µL) of the compound’s stock solution (1 mg/mL of MeOH), 476 µL of 3 mM bis(3-carboxy-4-nitrophenyl) disulphide (DTNB), 25 µL of AChE stock solution and the necessary amount of methanol to attain the same volume of sample mixture in a 1 mL cuvette. After mixing, samples were left to incubate for 15 min and then 75 µL of 16 mM acetylthiocholine iodide (AChI) solution was added and immediately the reaction was monitored at 405 nm for 5 min. Firstly, enzyme activity was determined by measuring the rate of enzymatic reaction in solution by recording absorbance (with or without enzyme) at 405 nm. To calculate the percent inhibition of AChE, the enzyme activity in the presence of increasing concentrations of the test compound, as well as for a blank reaction (methanol without compounds), were measured at 405 nm.
Where v1is the initial reaction rate in the presence of the inhibitor and v0 is the initial rate of the control reaction. The curves of inhibition were obtained using a plot of percentage of enzymatic inhibition versus inhibitor concentration, and a calibration curve was obtained from which the linear regression parameters were obtained.

Setting [1] is: AChE from Electric eel, mean of five independent experiments, read-out: AChE inhibition IC50.

T2 sequence (O42275 24-633): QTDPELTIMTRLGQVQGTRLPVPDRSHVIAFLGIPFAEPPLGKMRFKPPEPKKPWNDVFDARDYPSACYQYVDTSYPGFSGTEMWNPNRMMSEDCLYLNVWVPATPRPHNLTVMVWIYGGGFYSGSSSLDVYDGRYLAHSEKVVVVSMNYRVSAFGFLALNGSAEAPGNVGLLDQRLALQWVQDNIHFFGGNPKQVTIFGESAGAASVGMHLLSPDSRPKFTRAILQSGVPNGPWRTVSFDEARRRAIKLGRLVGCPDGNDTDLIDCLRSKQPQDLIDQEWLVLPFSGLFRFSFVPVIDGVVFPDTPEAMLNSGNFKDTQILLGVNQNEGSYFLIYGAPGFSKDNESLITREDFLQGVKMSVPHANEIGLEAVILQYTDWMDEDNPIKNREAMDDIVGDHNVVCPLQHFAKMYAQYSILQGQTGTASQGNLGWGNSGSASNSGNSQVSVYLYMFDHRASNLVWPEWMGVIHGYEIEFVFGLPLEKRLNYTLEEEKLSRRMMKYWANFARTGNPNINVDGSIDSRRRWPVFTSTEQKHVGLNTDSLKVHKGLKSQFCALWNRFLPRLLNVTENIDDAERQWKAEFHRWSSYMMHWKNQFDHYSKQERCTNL
T1 sequence (P05067 672-713 limits assumed): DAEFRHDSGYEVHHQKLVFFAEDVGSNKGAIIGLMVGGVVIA

In the case of `COc1cccc2cc(C(=O)NCCCNc3c4c(nc5cc(Cl)ccc35)CCCC4)oc12` [Compound 19, N-(3-((6-chloro-1,2,3,4-tetrahydroacridin-9-yl)amino)propyl)-7-methoxybenzofuran-2-carboxamide], the inhibition at 80 µM at Aβ1-42 came to 57.8%. For the same molecule, the IC50 on AChE (setting [1]) came to 130 nM.

For the molecule `COc1cccc2cc(C(=O)NCCCCNc3c4c(nc5cc(Cl)ccc35)CCCC4)oc12` [Compound 20, N-(4-((6-chloro-1,2,3,4-tetrahydroacridin-9-yl)amino)butyl)-7-methoxybenzofuran-2-carboxamide], at Aβ1-42, the inhibition at 80 µM was determined as 64.4%. Further, at AChE (setting [1]), the IC50 was 670 nM.

In the case of `O=C(NCCCNc1c2c(nc3ccccc13)CCCC2)c1cc2cccc(O)c2o1` [Compound 21, 7-Hydroxy-N-(3-((1,2,3,4-tetrahydroacridin-9-yl)amino)propyl)benzofuran-2-carboxamide], the inhibition at 80 µM on Aβ1-42 turned out to be 44%. Also, the IC50 at AChE (setting [1]) came to 810 nM.

`O=C(NCCCNc1c2c(nc3cc(Cl)ccc13)CCCC2)c1cc2cccc(O)c2o1` [Compound 23, N-(3-((6-chloro-1,2,3,4-tetrahydroacridin-9-yl)amino)propyl)-7-hydroxybenzofuran-2-carboxamide]: the “Aβ aggregation inhibition, Self-Aβ aggr” value at Aβ1-42 was determined as 31.5%. For the same molecule, on AChE, the IC50 was 130 nM.

For `O=C(NCCCCNc1c2c(nc3cc(Cl)ccc13)CCCC2)c1cc2cccc(O)c2o1` [Compound 24, N-(4-((6-chloro-1,2,3,4-tetrahydroacridin-9-yl)amino)butyl)-7-hydroxybenzofuran-2-carboxamide], the inhibition at 80 µM at Aβ1-42 worked out at 43.4%. On AChE (setting [1]), the IC50 worked out at 610 nM.
